Columns and labels:
PheRS = PheRS (Mycobacterium tuberculosis, UniProt P9WFU3); assay: ATP consumption assay; format: biochemical
FtsZ = molecular target: T1, FtsZ (Mycobacterium tuberculosis, UniProt P9WN95); assay: thermal shift assay; format: binding; conditions: read-out: thermal shift (dTm) at 100 μM, 16 h
T1 sequence (P9WN95 1-379): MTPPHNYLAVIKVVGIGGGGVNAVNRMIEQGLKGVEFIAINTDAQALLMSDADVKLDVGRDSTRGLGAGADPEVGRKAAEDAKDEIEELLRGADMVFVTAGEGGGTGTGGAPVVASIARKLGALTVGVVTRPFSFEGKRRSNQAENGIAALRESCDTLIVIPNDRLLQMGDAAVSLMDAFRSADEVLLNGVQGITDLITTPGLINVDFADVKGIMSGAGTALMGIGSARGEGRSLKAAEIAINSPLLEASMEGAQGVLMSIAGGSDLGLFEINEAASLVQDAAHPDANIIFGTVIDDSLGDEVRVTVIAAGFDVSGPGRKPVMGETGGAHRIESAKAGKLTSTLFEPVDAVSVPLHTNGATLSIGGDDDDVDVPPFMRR

Sequence of PheRS (P9WFU3 whole entry): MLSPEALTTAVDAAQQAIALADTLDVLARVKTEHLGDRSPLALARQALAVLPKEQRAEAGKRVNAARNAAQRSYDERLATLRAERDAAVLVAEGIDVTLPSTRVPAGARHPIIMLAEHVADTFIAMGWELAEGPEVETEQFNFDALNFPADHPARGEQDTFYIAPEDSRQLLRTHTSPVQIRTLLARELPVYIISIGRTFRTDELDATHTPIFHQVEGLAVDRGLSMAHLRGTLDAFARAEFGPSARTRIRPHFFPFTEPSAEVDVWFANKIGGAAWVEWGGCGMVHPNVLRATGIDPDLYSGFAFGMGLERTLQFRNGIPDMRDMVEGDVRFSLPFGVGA
Sequence of PheRS (P9WFU1 whole entry partner): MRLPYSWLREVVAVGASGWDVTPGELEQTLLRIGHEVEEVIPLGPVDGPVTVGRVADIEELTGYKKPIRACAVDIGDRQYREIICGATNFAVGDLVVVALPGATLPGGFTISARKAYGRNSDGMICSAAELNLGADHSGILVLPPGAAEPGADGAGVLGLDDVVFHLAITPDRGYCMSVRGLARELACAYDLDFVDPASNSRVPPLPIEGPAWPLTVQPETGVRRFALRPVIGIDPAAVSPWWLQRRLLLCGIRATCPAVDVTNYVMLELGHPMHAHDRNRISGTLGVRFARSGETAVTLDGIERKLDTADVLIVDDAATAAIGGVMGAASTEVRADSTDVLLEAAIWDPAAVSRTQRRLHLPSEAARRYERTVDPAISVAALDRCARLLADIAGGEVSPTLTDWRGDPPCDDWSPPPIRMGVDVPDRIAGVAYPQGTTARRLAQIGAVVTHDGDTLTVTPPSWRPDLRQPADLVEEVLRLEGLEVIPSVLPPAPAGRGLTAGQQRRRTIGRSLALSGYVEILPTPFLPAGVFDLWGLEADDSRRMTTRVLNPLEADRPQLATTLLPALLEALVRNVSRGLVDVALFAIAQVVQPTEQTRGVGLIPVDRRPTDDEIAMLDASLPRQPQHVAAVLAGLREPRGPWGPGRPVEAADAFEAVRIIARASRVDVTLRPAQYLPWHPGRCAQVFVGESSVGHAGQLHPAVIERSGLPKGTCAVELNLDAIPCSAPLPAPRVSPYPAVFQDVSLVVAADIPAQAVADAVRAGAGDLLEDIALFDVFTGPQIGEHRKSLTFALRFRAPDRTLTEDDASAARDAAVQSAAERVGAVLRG

| Compound | IC50 (PheRS) [µM] | ΔTm at 100 µM (FtsZ) [°C] |
| --- | --- | --- |
| O=C(Nc1cccc(-c2nn[nH]n2)c1)c1ccc2nc(-c3ccccc3)[nH]c2c1 [GDI-10928] | 120 | 1.84 |
| CC(=O)Nc1cc(Nc2cc(NC3CC3)n3ncc(C#N)c3n2)ccc1N(C)CC(=O)Nc1cccc(C(F)(F)F)c1 [GDI-10996] |  | 1.25 |

From paper doi:10.1101/2025.04.28.650819v3 (biorxiv, 2025)
